# Legend:
# PKCδ = PKCδ translocation in ETFR cells; format: cell-based, rat; conditions: 100 nM fMLF, 10 μg/ml CaG or PMA 500 nM, 37° C. 10 min
# Method: ETFR cells were seeded on coverslips and cultured overnight in DMEM containing 1% FCS at 37° C. After further culture in FCS-free DMEM for 3 h, cells were treated with stimulants for indicated time periods at 37° C. and were then fixed in 4% paraformaldehyde for 5 min at room temperature. […] The rabbit anti-PKCα/β, δ, and ξ, antibodies (1:1000 in DPBS) were applied separately for 1 h at room temperature. After three rinses with DPBS, the cells were stained with FITC-labeled goat anti-rabbit secondary antibody (PharMingen, 1:1000 in DPBS) for 1 h at room temperature. The coverslips were mounted with an anti-fade, water-based mounting medium with Propidium Iodide (PI) (Vector Lab, Burlingamem, Calif.) and analyzed under a laser scanning confocal fluorescence microscope (Zeiss LSM510 NLO Meta, Jena, Germany).
# neutrophils = test: Chemotaxis assay, neutrophils; format: cell-based, human; conditions: neutrophils
# Method: (§1) Human PBMC were isolated from leukopacks obtained through the courtesy of Transfusion Medicine Department, National Institutes of Health Clinical Center (Bethesda, Md.) by Ficoll-Hypaque density gradient centrifugation. Monocytes were purified from human PBMC by Percoll gradient to yield>90% pure preparations. […] H. Ali and R. Snyderman, Duke University (Durham, N.C.) and maintained in the presence of 0.8 mg/ml geneticin (G418, Life Technologies, Rockville, Md.) in DMEM supplemented with 10% FCS. B. Chemotaxis assay Migration of phagocytes and ETFR cells was assessed using a 48-well microchemotaxis chamber (Neuroprobe, Cabin John, Md.) as previously described (Hu et al. (2001) J Leukoc Biol 70 15512). Briefly, different concentrations of stimulants were placed in the wells of the lower compartment of the chamber, and 50 μl cells (1.5×10^6 cells/ml for monocyte and neutrophil, 1×10^6 ETFR cells/ml) were added to the wells of the upper compartment. The lower and upper compartments were separated by either a 5-μm (for monocyte) or a 10-μm pore size, collagen-coated (for ETFR cells) polycarbonate filter (Osmonics, Livermore, Calif.). After incubation at 37° C. in humidified air with 5% CO2 (60 min for neutrophils, 90 min for monocytes, 4.5 h for ETFR cells), the filter was removed and stained, and the cells migrating across the filter were counted with light microscopy. The results are presented as the mean number of cells (±SD) in three high power fields (HPFs). For analysis of cross-desensitization, cells were pretreated with indicated reagents for 1 h at 37° C. After thorough washing with cold medium (RPMI 1640, 1% BSA), the cells were resuspended and assayed. To measure the effect of various signaling inhibitors, unless otherwise indicated, the cells were pre-incubated at 37° C. for 60 min with the inhibitors, and were then added to the upper wells of the chemotaxis chamber.
# PKC isozymes = test: PKC translocation in parental RBL cells; format: cell-based, rat; conditions: 100 nM fMLF, 10 μg/ml CaG or PMA 500 nM, 37° C. 10 min
# FPR = target: T1, FPR (Homo sapiens, UniProt P21462); test: 3[H]-fMLF binding competition on monocytes and ETFR cells; conditions: 3 nM 3[H]-fMLF
# T1 construct: expressed in transfected cells; host or cells: Rat basophilic leukemia (RBL) cells, stably transfected (ETFR cells); gift of H. Ali and R. Snyderman, Duke University
# T1 sequence (P21462 1-350): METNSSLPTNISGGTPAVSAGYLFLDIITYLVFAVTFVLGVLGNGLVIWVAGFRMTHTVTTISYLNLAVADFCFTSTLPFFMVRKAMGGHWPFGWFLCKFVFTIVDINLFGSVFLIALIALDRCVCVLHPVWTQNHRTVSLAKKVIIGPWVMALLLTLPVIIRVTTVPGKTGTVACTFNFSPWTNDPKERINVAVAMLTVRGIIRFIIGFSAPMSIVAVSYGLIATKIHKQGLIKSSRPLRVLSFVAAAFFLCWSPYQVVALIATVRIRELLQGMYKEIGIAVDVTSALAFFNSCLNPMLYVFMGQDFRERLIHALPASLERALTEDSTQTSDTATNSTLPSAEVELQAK
# Description: The cells were then filtered onto Whatman paper discs, which were air-dried and measured for […].
# PKCζ = PKCζ translocation in ETFR cells (confocal microscopy); format: cell-based, rat; conditions: 100 nM fMLF, 10 μg/ml CaG or PMA 500 nM, 37° C. 10 min
# Method: ETFR cells were seeded on coverslips and cultured overnight in DMEM containing 1% FCS at 37° C. After further culture in FCS-free DMEM for 3 h, cells were treated with stimulants for indicated time periods at 37° C. and were then fixed in 4% paraformaldehyde for 5 min at room temperature. The cells were permeabilized with 0.2% Tween 20 for 30 min at 4° C. and the reaction was blocked with 5% goat normal serum for 15 min at room temperature. The rabbit anti-PKCα/β, δ, and ξ, antibodies (1:1000 in DPBS) were applied separately for 1 h at room temperature. After three rinses with DPBS, the cells were stained with FITC-labeled goat anti-rabbit secondary antibody (PharMingen, 1:1000 in DPBS) for 1 h at room temperature. The coverslips were mounted with an anti-fade, water-based mounting medium with Propidium Iodide (PI) (Vector Lab, Burlingamem, Calif.) and analyzed under a laser scanning confocal fluorescence microscope (Zeiss LSM510 NLO Meta, Jena, Germany). Excitation wavelengths 488 (for FITC) and 568 (for PI) nm were used to generate fluorescence emission in green and red, respectively.
# parental RBL cells = test: Chemotaxis assay, parental RBL cells; format: cell-based, rat; conditions: parental RBL cells without FPR
# Method: as §1, with “The results are presented as the mean number of cells (±SD) in three high power fields (HPFs). For analysis of cross-desensitization, cells were pretreated with indicated reagents for 1 h at 37° C. After thorough washing with cold medium (RPMI 1640, 1% BSA), the cells were resuspended and assayed. To measure the effect of various signaling inhibitors, unless otherwise indicated, the cells were pre-incubated at 37° C. for 60 min with the inhibitors, and were then added to the upper wells of the chemotaxis chamber.” left out
# ERK1/2 [1] = test: Phosphorylation of ERK1/2 in ETFR cells (Western blot); format: cell-based, rat
# Method: ETFR cells were plated in Petri dishes and cultured in DMEM at 37° C. in humidified 5% CO2 atmosphere for 48 h. After further culture in serum-free DMEM overnight, the cells were treated with stimulants for indicated time periods. The reaction was stopped by adding 1 ml ice-cold PBS, and the cells were lysed in 1×SDS lysis buffer (62.5 mM Tris-HCl, 2% w/v SDS, 10% glycerol, 50 mM DTT, pH 6.8) and harvested into tubes for sonication. Proteins (50 μg for each sample) were resolved by SDS-PAGE and transferred onto nitrocellulose membranes (Bio-Rad, Hercules, Calif.). The membranes were blocked for 2 h at room temperature in 3% non-fat milk prepared in Tris-buffered saline-T (10 mM Tris-HCl, pH 7.5, 150 mM NaCl, 0.1% Tween 20) and probed with anti-p-ERK1/2, p-p38 MAPK, or p-Akt (1:1000) at room temperature for 1-2 h or at 4° C. overnight. The membranes were then washed and incubated with horseradish peroxidase-conjugated secondary antibodies diluted in Tris-buffered saline-T for 1 h at room temperature. The immune complexes on the membranes were visualized using ECL reagents. Total ERK1/2, p38 MAPK, and Akt were visualized by stripping the same membrane and probing with antibodies against total ERK1/2, p38 MAPK, and Akt.
# ERK1/2 [2] = test: Phosphorylation of ERK1/2 in parental RBL cells; format: cell-based, rat
substance,measurement,setting,value
"CaG: Cathepsin G, serine protease purified from neutrophil granules, purchased from Athens Research & Technology",translocation of PKCδ,PKCδ,did not induce translocation of PKCδ
same,concentration range potently chemotactic,neutrophils,4 to 400 nM
same,PKC translocation in parental RBL cells,PKC isozymes,Neither CaG nor fMLF stimulated PKC translocation in parental RBL cells
same,"IC50, displacement of 3[H]-fMLF binding",FPR,2.5 µg/mL
same,translocation of PKCζ,PKCζ,a substantial proportion of PKCξ translocated to the cell membrane region
same,migration of parental RBL cells,parental RBL cells,Neither CaG nor fMLF induced migration of parental RBL cells
same,time to activation of ERK1/2,ERK1/2 [1]; ETFR cells,1 to 5 min
same,delay to reach maximal activity (MAPK phosphorylation) as compared with fMLF,ERK1/2 [1]; FPR transfected cells,10 to 15 min
same,phosphorylation of ERK1/2 in parental RBL cells,ERK1/2 [2],did not show any increased phosphorylation of ERK1/2

# — patent US20060008891A1, “Cathepsin G-related peptides as modulators of formylpeptide receptors (FPR)” (The Government of USA as repersented by the Secretary, …, priority 2004, published 2006)
